In ChEMBL document CHEMBL1201862, “PubChem BioAssay data set” (2004):
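These data come from cells grown in 96-well plates and exposed to compound for 48 hours at five concentrations. GI50: concentration for 50% inhibition of growth.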 The source made the active and inactive calls. Rule as the data show it: active = GI50 up to about 1.1 µM and inactive = higher.

Tests used:
Assay in all cases: NCI tumour cell line growth inhibition, 48 h
SNB-19 = system: SNB-19
K562 = system: K562
UACC-62 = system: UACC-62
MDA-MB-435 = system: MDA-MB-435
HOP-62 = system: HOP-62
RXF 393 = system: RXF 393
HCT-15 = system: HCT-15
DU-145 = system: DU-145
EKVX = system: EKVX
NCI-H226 = system: NCI-H226
SF-295 = system: SF-295
SF-268 = system: SF-268
SW-620 = system: SW-620
Malme-3M = system: Malme-3M
HCC 2998 = system: HCC 2998
HL-60 = system: HL-60
NCI-H23 = system: NCI-H23
SF-539 = system: SF-539
TK-10 = system: TK-10
MDA-N = system: MDA-N

| SMILES | GI50 (SNB-19) | GI50 (K562) | GI50 (UACC-62) | GI50 (MDA-MB-435) | GI50 (HOP-62) | GI50 (RXF 393) | GI50 (HCT-15) [µM] | GI50 (DU-145) | GI50 (EKVX) | GI50 (NCI-H226) | GI50 (SF-295) | GI50 (SF-268) | GI50 (SW-620) | GI50 (Malme-3M) | GI50 (HCC 2998) | GI50 (HL-60) | GI50 (NCI-H23) | GI50 (SF-539) | GI50 (TK-10) | GI50 (MDA-N) |
| --- | --- | --- | --- | --- | --- | --- | --- | --- | --- | --- | --- | --- | --- | --- | --- | --- | --- | --- | --- | --- |
| COc1cccc(N2C(=O)C3c4[nH]c5ccccc5c4C4c5ccccc5CCC4C3C2=O)c1 (stereo not given) | 3.31 µM (inactive) | > 10 µM (inactive) | > 10 µM (inactive) | > 7.5 µM (inactive) | 2.4 µM (inactive) | > 6.62 µM (inactive) | > 10 | > 10 µM (inactive) | > 9.31 µM (inactive) | > 4.37 µM (inactive) | > 10 µM (inactive) | 4.16 µM (inactive) | > 9.14 µM (inactive) | 3.75 µM (inactive) | > 10 µM (inactive) | > 10 µM (inactive) | > 10 µM (inactive) | 2.5 µM (inactive) | > 10 µM (inactive) | > 8.28 µM (inactive) |
| Cc1cc2c(cc1Cl)SC(NNC1=NCCN1)=NS2(=O)=O | > 10 µM (inactive) | > 10 µM (inactive) | > 10 µM (inactive) | > 10 µM (inactive) | > 10 µM (inactive) | > 10 µM (inactive) | > 10 | > 10 µM (inactive) | > 10 µM (inactive) | > 10 µM (inactive) | > 10 µM (inactive) | > 10 µM (inactive) | > 10 µM (inactive) | > 10 µM (inactive) | > 10 µM (inactive) | > 10 µM (inactive) | > 10 µM (inactive) | > 10 µM (inactive) | > 10 µM (inactive) | > 10 µM (inactive) |
| COCn1cnc2c(=O)nc(SC)n(-c3ccccc3)c21 | > 100 µM (inactive) | > 100 µM (inactive) | > 100 µM (inactive) | > 100 µM (inactive) | > 100 µM (inactive) | > 100 µM (inactive) | > 100 | > 100 µM (inactive) | > 100 µM (inactive) | > 100 µM (inactive) | > 100 µM (inactive) | > 100 µM (inactive) | > 100 µM (inactive) | > 100 µM (inactive) | > 100 µM (inactive) | > 100 µM (inactive) | > 100 µM (inactive) | > 100 µM (inactive) | > 100 µM (inactive) | > 100 µM (inactive) |
| C/C(=N/NC(=S)N1CCCCC1)c1cccc(/C(C)=N\NC(=S)N2CCCCC2)n1 | 2.47 µM (inactive) | 2.28 µM (inactive) | 2.42 µM (inactive) | 1.92 µM (inactive) | 4.71 µM (inactive) | 2.26 µM (inactive) | 1.66 | 2.23 µM (inactive) | 2.13 µM (inactive) | 2.05 µM (inactive) | 1.95 µM (inactive) | 3.22 µM (inactive) | 3.15 µM (inactive) | 2.29 µM (inactive) | 2.33 µM (inactive) | 1.84 µM (inactive) | 3.93 µM (inactive) | 1.92 µM (inactive) | 1.8 µM (inactive) | 1.51 µM (inactive) |
| CC(=O)O[C@H]1CC[C@@]2(C)C(=CC[C@H]3[C@@H]4C[C@H](N5CCN(C)CC5)[C@H](OC(C)=O)[C@@]4(C)CC[C@@H]32)C1 | 21.9 µM (inactive) | 1.91 µM (inactive) | 11.7 µM (inactive) | 5.08 µM (inactive) | 25.1 µM (inactive) | 19.1 µM (inactive) | 13 | > 100 µM (inactive) | 20.7 µM (inactive) | 28.9 µM (inactive) | 22.1 µM (inactive) | 20 µM (inactive) | 15.5 µM (inactive) | 11.7 µM (inactive) | 15.5 µM (inactive) | 2.44 µM (inactive) | 22.9 µM (inactive) | 4.26 µM (inactive) | > 100 µM (inactive) | 12.1 µM (inactive) |
| O=C1CC(c2ccccc2)C2(C(=O)NC(=S)NC2=O)C(c2ccccc2)C1 (stereo not given) | > 75 µM (inactive) | > 75 µM (inactive) | > 75 µM (inactive) | 55.8 µM (inactive) | > 75 µM (inactive) | > 75 µM (inactive) | > 75 | > 75 µM (inactive) | > 75 µM (inactive) | > 75 µM (inactive) | > 75 µM (inactive) | > 75 µM (inactive) | > 75 µM (inactive) | > 75 µM (inactive) | > 75 µM (inactive) | 41.3 µM (inactive) | > 75 µM (inactive) | > 75 µM (inactive) | > 75 µM (inactive) | > 75 µM (inactive) |
| Cc1cc(/N=N/c2c(O)ccc3ccccc23)ccc1/N=N/c1cccc([N+](C)(C)C)c1 | 3.71 µM (inactive) | 13.2 µM (inactive) | 14.7 µM (inactive) | 6.25 µM (inactive) | 11.4 µM (inactive) | 16.1 µM (inactive) | 31 | 19.6 µM (inactive) | 17.6 µM (inactive) | 6.41 µM (inactive) | 20.6 µM (inactive) | 10.7 µM (inactive) | 10.1 µM (inactive) | 9.64 µM (inactive) | 21.1 µM (inactive) | 2.38 µM (inactive) | 13.3 µM (inactive) | 5.71 µM (inactive) | 29.5 µM (inactive) | 12.9 µM (inactive) |
| CCC1(CCSC(=N)N)C(=O)NC(=O)NC1=O | > 100 µM (inactive) | > 100 µM (inactive) | > 100 µM (inactive) | > 100 µM (inactive) | > 100 µM (inactive) | > 100 µM (inactive) | > 100 | > 100 µM (inactive) | > 100 µM (inactive) | > 100 µM (inactive) | > 100 µM (inactive) | > 100 µM (inactive) | > 100 µM (inactive) | > 100 µM (inactive) | > 100 µM (inactive) | 48.9 µM (inactive) | > 100 µM (inactive) | > 100 µM (inactive) | > 100 µM (inactive) | > 100 µM (inactive) |
| CN(C)N1C(=O)SCC(c2ccccc2)(c2ccccc2)C1=O | > 100 µM (inactive) | 87.7 µM (inactive) | 56.8 µM (inactive) | > 100 µM (inactive) | > 100 µM (inactive) | > 100 µM (inactive) | > 100 | > 100 µM (inactive) | > 100 µM (inactive) | > 100 µM (inactive) | > 100 µM (inactive) | > 100 µM (inactive) | > 100 µM (inactive) | > 100 µM (inactive) | > 100 µM (inactive) | > 100 µM (inactive) | > 100 µM (inactive) | > 100 µM (inactive) | > 100 µM (inactive) | > 100 µM (inactive) |
